The source of these data is patent US6387945B2, “Lipoic acid analogs” (The Regents of the University of California, priority 2000, dated 2002).

Series [1] relates to HT4 cells. In words: Cell viability by LDH leakage after glutamate treatment. The settings on record: 10 mM glutamate, FIG. 2. The class given is cell-based, mouse. The procedure: (§1) HT-4 cells (mouse hippocampal cell line) were purchased from American Type Culture Collection (ATCC, Bethesda, Md.). All experiments reported here were carried out with 10 mM glutamate.
(§2) HT4 cells were grown in DMEM supplemented with 10% serum and 100 U/ml penicillin-streptomycin at 37° C. in a humidified atmosphere containing 95% air/5% CO2.
(§3) All experiments were performed under the following protocol. Cells were allowed to grow to confluency, were trypsinized and subcultured in culture dishes at a concentration of 375,000 cells per millititer. The cells were continually cultured at 37° C. and were allowed to grow for 24 h, and then were exposed to glutamate treatment.
Cell viability was assayed using lactate dehydrogenase (LDH) leakage. After completion of the experiments, culture medium was removed from plates and centrifuged (500 g×5 min). The cells that detached from the monolayer following glutamate treatment were separated by centrifugation of the growth medium. […] LDH activity was measured from the samples spectophotometrically within two days of storage. Cell viability was determined using the following formula: viability=attached cell LDH activity/total LDH activity (medium+detached cell LDH activity+attached cell LDH activity).
(LDH leaks from cells whose membrane has failed.)

A further series concerns ICAM-1. In words: PMA-induced ICAM-1 expression in ECV endothelial cells (flow cytometry). Format: cell-based, human. The settings on record: same concentration; 20 nM PMA, 24 h; FIG. 3. The procedure:
EV304 (ECV), a spontaneously transformed immortal human endothelial cell line established from the vein of an apparently normal human umbilical cord, were obtained from ATCC (Bethesda, Md.). ECV cells were grown in medium 199 supplemented with 10% fetal calf serum, 100 U/ml penicillin and 100 μg/ml streptomycin. Cells were maintained in a standard culture incubator with humidified air containing 5% CO2 at 37° C. ECV monolayers were pretreated with LA or LA-PLUS for the time period indicated in the respective figure legend. Following the pretreatment, cells were activated using 20 nM PMA for 24 h. […] Appropriate isotypic controls were used for background fluorescence in the ICAM-1 assay. The fluorescence and light scattering properties (forward scatter, FS; side scatter, SS) of the cells were determined by using an EPICS-Elite (Coulter, Miami, Fla.) flow cytometer. Cells with FITC-conjugated antibodies were excited using a 488 nm argon ion laser and emission of FTIC was recorded at 525 nm. […] A logarithmic scale was used to measure both background and endothelial cell fluorescence. Background fluorescence was then subtracted from endothelial cell fluorescence, allowing linear comparisons of ICAM-1 expression between various samples.
(In flow cytometry, cells or beads pass a laser one at a time.)

In another series the test system is L6 myoblasts. The experiment in a line: Glucose uptake by L6 rat muscle derived cells. Format: cell-based. The settings on record: 1 h pretreatment; FIG. 4. The procedure:
L6 cells were obtained from American Type Culture Collection (MD). Dulbecco's Phosphate Buffered Saline (DPBS) and Dulbecco's Modified Eagle Medium (DMEM) supplemented with high glucose, L-glutamine, pyridoxine hydrochloride and 110 mg/l sodium pyruvate were obtained from GIBCO BRL (Life Technologies NY). Fetal calf serum (FCS) and other reagents for the culture medium were obtained from the cell culture facility of the University of California-San Francisco. Undifferentiated mononucleated cells (myoblasts) were used in this study. For experiments, cells were seeded at a concentration of 0.2×10^6 cells per well in 6-well flat bottom tissue culture treated polystyrene plates (FALCON, Becton Dickinson Labware, NJ). Cultures were grown in DMEM supplemented with 10% FCS, 5 mM glutamine, 0.3% D-glucose, 50 U/ml of penicillin, and […] of streptomycin, in humidified air containing 5% CO2 at 37° C. Cell viability was greater than 97% as estimated by trypan blue exclusion or propidium iodide staining. The cells were split once every third day. All experiments were carried out on cells (6th to 12th passage) in the third day of the last passage. Cells seeded in 6-well plates were washed thrice with 1 ml transport suffer (140 mM NaCl, 5 mM KCl, 2.5 mM MgCl2, 1 mM CaCl2 in 20 mN tris-HEPES, pH 7.4) at room temperature. […] Radioactivity in each sample was read using a scintillation counter.

Series [2] relates to HT4 cells. The experiment in a line: Flow cytometric assay of fragmented DNA (glutamate-induced apoptosis). Format: cell-based, mouse. The note with it: 10 mM glutamate, 24 h, FIG. 1. The procedure:
as §1, §2, §3
HT4 cells were exposed to 10 mM glutamate for 24 h with and without antioxidants. […] The permeablized cells were kept in the dark for 6 h at 4° C. and their DNA integrity was analyzed using a flow cytometer (XL, Coulter, FL) with argon-ion laser (excitation 488 nm) and the 575 nm emission was recorded in fluorescence channel 1 (FL1). […]
The pathway of cell death was explored by staining the cells for 6 h following the glutamate treatment with a DNA-binding fluorescent dye, propidum iodide (PI) in cells permeabilised with a low concentration of detergent (Triton X-100 0.1% w/v). […] The cells were analyzed by flow cytometry.

The next series deals with HT4 neuronal cells. The experiment in a line: Cells' ability to retain the reduced forms (DTNB efflux assay), HT4 neuronal cells. The class given is cell-based, mouse. The settings on record: 0.1 mM LA or LA-PLUS, FIG. 6B. The procedure:
(§4) Jurkat T cells or neuronal HT4 cells were incubated with LA (0.1 mM) or LA-PLUS (0.1 mM). The medium of the cells was replaced by phosphate buffer saline that contained 250 uM of 5,5′-dithiobis-(2-nitrobenzoic acid) (DTNB). The free thiols in the medium were trapped by the DTNB and absorption was measured at 420 nm at different time intervals.
(§5) The efflux of DHLA and DHLA-PLUS from cells was measured in the medium of cells in culture. The medium was composed of PBS and DTNB. […] An illustration of how LA-PLUS crosses biological barriers such as membranes (also showing retention of DHLA-PLUS inside the cell) is given in FIG. 7.

Another series deals with Jurkat T cells. In words: Cells' ability to retain the reduced forms (DTNB efflux assay), Jurkat T cells. Format: cell-based. The note with it: 0.1 mM LA or LA-PLUS, FIG. 6A. The procedure: as §4, §5

Take `O=C(O)CCCCC1CCSS1` (centres unmarked) [LA, 1,2-dithiolane-3-pentanoic acid, reference compound]: in the series on HT4 cells [1] (100 μM compound), the “protection of HT4 cells against glutamate cytotoxicity (viability)” value is “did not provide total protection”.
`CN(C)CCNC(=O)CCCCC1CCSS1.Cl` (centres unmarked) [LA-PLUS, N,N-Dimethyl-N-2-Amidoethyl Lipoate (HCl)]: the “efficiency in protecting HT4 cells compared to lipoic acid” value with HT4 cells [1] is recorded as “more efficient in protecting the HT4 cells than lipoic acid”. The “down-regulation of PMA induced ICAM-1 expression compared to LA” value with ICAM-1 is recorded as “much more effectively down-regulated”. Further, the “enhancement of glucose uptake compared to LA” value with L6 myoblasts is on record as “clearly more effective than LA”. In the series with HT4 cells [2] (50 μM compound), the “glutamate-induced apoptotic process (cell shrinkage, DNA fragmentation)” value was “completely blocked”. In addition, the “anti-apoptotic effect compared to LA” value in the series with HT4 cells [2] was “much more pronounced compared to the effect of LA”.
As for `O=C(O)CCCC[C@@H](S)CCS` (racemic) [DHLA, dihydrolipoate], the “efflux of reduced form from cells / retention inside cells” value with HT4 neuronal cells and in the series with Jurkat T cells was “effluxed from the cell faster than DHLA-PLUS” throughout.
